In PMC12486159 (American journal of physiology. Renal physiology, 2025):

Target: human FATP2 (Homo sapiens, UniProt O14975)
Experiment: BODIPY-FA uptake in FATP2-overexpressing HPCT cells, fluorescence plate reader
Assay type: cell-based

human FATP2, sequence (O14975 whole entry): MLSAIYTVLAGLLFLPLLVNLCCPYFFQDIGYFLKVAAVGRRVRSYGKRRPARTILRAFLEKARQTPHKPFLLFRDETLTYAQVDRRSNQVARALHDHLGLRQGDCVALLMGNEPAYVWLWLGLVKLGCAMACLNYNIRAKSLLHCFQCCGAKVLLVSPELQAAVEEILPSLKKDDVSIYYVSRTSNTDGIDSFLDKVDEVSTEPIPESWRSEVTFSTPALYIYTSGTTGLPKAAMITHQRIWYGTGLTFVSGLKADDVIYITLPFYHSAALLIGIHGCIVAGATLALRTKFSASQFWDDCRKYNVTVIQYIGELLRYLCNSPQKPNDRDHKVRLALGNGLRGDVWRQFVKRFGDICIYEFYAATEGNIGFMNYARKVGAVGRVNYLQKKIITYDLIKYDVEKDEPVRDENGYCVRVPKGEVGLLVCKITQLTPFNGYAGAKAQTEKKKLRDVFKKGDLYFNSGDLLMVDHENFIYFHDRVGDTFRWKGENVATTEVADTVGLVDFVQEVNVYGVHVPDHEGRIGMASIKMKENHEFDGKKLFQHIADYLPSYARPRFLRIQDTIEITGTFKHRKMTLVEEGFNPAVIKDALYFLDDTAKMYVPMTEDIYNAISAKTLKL

O=C1Nc2ccc(Br)cc2C12NN=C(c1ccccc1)S2 (stereo not shown) [Lipofermata]
IC50: 5 µM
